Measured values reported in patent publication US12459921B2, “Isoindoline compound, preparation method, pharmaceutical composition and use thereof” (SHANGHAI INSTITUTE OF MATERIA MEDICA, CHINESE ACADEMY OF …, priority 2018, dated 2025).

Tested on: MM.1S cells
Assay: Inhibitory effect on the proliferation of MM.1S, MTS cell viability test
Format: cell-based
Conditions: Homo sapiens, MM1.S, 168 h, multiple myeloma MM.1S cells, 7 days incubation, read-out: Tumor cell inhibitory activity
Outline: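 Viability measured by MTS (OD490 minus OD690 background, 3-4 h) after a 7-day exposure of 20,000 MM.1S cells/well to 5-fold serially diluted compound, 0.2% DMSO final. Inhibition calculated relative to DMSO wells; IC50 curve-fitted, averaged over three repeats.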

| Structure (SMILES) | IC50 |
| --- | --- |
| N#CC1(c2ccc(OC(F)(F)F)cc2)CCN(CCCCc2cccc3c2CN(C2CCC(=O)NC2=O)C3=O)CC1 (stereo not drawn) [Example 99, 1-(4-(2-(2,6-dioxopiperidine-3-)-1-oxoisoindoline-4-)butyl)-4-(4-trifluoromethoxyphenyl)piperidine-4-carbonitrile] | < 100 nM |
| N#CC1(c2cccc(Cl)c2)CCN(CCCCCCc2cccc3c2CN(C2CCC(=O)NC2=O)C3=O)CC1 (stereo not drawn) [Example 100, 4-(3-chlorophenyl)-1-(6-(2-(2,6-dioxopiperidine-3-)-1-oxoisoindoline-4-)hexyl)piperidine-4-carbonitrile] | < 100 nM |
| N#CC1(c2ccc(Cl)cc2Cl)CCN(CCCCc2cccc3c2CN(C2CCC(=O)NC2=O)C3=O)CC1 (stereo not drawn) [Example 101, 4-(2,4-chlorophenyl)-1-(4-(2-(2,6-dioxopiperidine-3-)-1-oxoisoindoline-4-)butyl)piperidine-4-carbonitrile] | < 100 nM |
| N#CC1(c2ccc(Cl)cc2)CCN(CCCCCCc2cccc3c2CN(C2CCC(=O)NC2=O)C3=O)CC1 (stereo not drawn) [Example 102, 4-(4-chlorophenyl)-1-(6-(2-(2,6-dioxopiperidine-3-)-1-oxoisoindoline-4-)hexyl)piperidine-4-carbonitrile] | < 100 nM |
| O=C1CCC(N2Cc3c(CCCCCN4CCCc5ccccc54)cccc3C2=O)C(=O)N1 (stereo not drawn) [Example 103, 3-(4-(5-(3,4-dihydroquinoline-1(2H))pentyl)-1-oxoisoindoline-2-)piperidine-2,6-dione] | 100 to 1000 nM |
| CC1CCc2cc(F)ccc2N1CCCCCc1cccc2c1CN(C1CCC(=O)NC1=O)C2=O (stereo not drawn) [Example 104, 3-(4-(5-(6-fluoro-2-methyl-3,4-dihydroquinoline-1(2H))pentyl)-1-oxoisoindoline-2-) piperidine-2,6-dione] | 100 to 1000 nM |
| O=C1CCC(N2Cc3c(CCCCCN4CCOc5ccccc54)cccc3C2=O)C(=O)N1 (stereo not drawn) [Example 105, 3-(4-(5-(2,3-dihydro-4H-benzo[b][1,4]oxazine-4-)pentyl)-1-oxoisoindoline-2-)piperidine-2,6-dione] | 100 to 1000 nM |
| O=C1CCC(N2Cc3c(CCCCCN4CCCc5cc(Br)ccc54)cccc3C2=O)C(=O)N1 (stereo not drawn) [Example 106, 3-(4-(5-(6-bromo-3,4-dihydroquinoline-1(2H))pentyl)-1-oxoisoindoline-2-)piperidine-2,6-dione] | 100 to 1000 nM |
| Cc1cc(OCCCCOc2cccc3c2C(=O)N(C2CCC(=O)NC2=O)C3=O)c2ccccc2n1 (stereo not drawn) [Example 108, 2-(2,6-dioxopiperidine-3-)-4-(4-((2-methylquinoline-4-)oxy)butoxy)isoindoline-1,3-dione] | 1000 to 20000 nM |
| O=C1CCC(N2Cc3c(CCCCCN4CCCc5ccc(Cl)cc54)cccc3C2=O)C(=O)N1 (stereo not drawn) [Example 109, 3-(4-(5-(7-chloro-3,4-dihydroquinoline-1(2H))pentyl)-1-oxoisoindoline-2-)piperidine-2,6-dione] | 1000 to 20000 nM |
| O=C1CCC(N2Cc3c(CCCCCN4CCOc5cc(Br)ccc54)cccc3C2=O)C(=O)N1 (stereo not drawn) [Example 110, 3-(4-(5-(7-bromo-2,3-dihydro-4H-benzo[b][1,4]oxazine-4-)pentyl)-1-oxoisoindoline-2-)piperidine-2,6-dione] | < 100 nM |
| O=C1CCC(N2Cc3c(CCCCCN4CCCCc5ccccc54)cccc3C2=O)C(=O)N1 (stereo not drawn) [Example 111, 3-(1-oxo-4-(5-(2,3,4,5-tetrahydro-TH-benzo[b]azepine-1-)pentyl)isoindoline-2-)piperidine-2,6-dione] | 100 to 1000 nM |
| O=C1CCC(N2Cc3c(CCCCCN4CCc5cc(Br)ccc54)cccc3C2=O)C(=O)N1 (stereo not drawn) [Example 112] | < 100 nM |
| O=C1CCC(N2Cc3c(CCCCCN4CCc5ccccc5C4)cccc3C2=O)C(=O)N1 (stereo not drawn) [Example 113, 3-(4-(5-(3,4-dihydroisoquinoline-2(1H)-)pentyl)-1-oxoisoindoline-2-)piperidine-2,6-dione] | 100 to 1000 nM |
| O=C1CCC(N2Cc3c(CCCCCN4CCCc5cc(Cl)ccc54)cccc3C2=O)C(=O)N1 (stereo not drawn) [Example 115] | 100 to 1000 nM |
| O=C1CCC(N2Cc3c(OCCCC(=O)N4CCc5ccccc54)cccc3C2=O)C(=O)N1 (stereo not drawn) [Example 116, 3-(4-(4-(indoline-1-)-4-oxobutoxy)-1-oxoisoindoline-2-)piperidine-2,6-dione] | < 100 nM |
| O=C1CCC(N2Cc3c(OCCCC(=O)N4CCCc5ccccc54)cccc3C2=O)C(=O)N1 (stereo not drawn) [Example 117, 3-(4-(4-(3,4-dihydroquinoline-1(2H)-)-4-oxobutoxy)-1-oxoisoindoline-2-)piperidine-2,6-dione] | 100 to 1000 nM |
| O=C1CCC(N2Cc3c(OCCCCC(=O)N4CCc5ccccc54)cccc3C2=O)C(=O)N1 (stereo not drawn) [Example 118, 3-(4-((5-(indoline-1-)-5-oxopentyl)oxy)-1-oxoisoindoline-2-)piperidine-2,6-dione] | < 100 nM |
| O=C1CCC(N2Cc3c(OCCCCC(=O)N4CCCc5ccccc54)cccc3C2=O)C(=O)N1 (stereo not drawn) [Example 119, 3-(4-((5-(3,4-dihydroquinoline-1(2H)-)-5-oxopentyl)oxy)-1-oxoisoindoline-2-)piperidine-2,6-dione] | < 100 nM |
| O=C1CCC(N2Cc3c(CCCCCCN4CCC5(CC4)OCc4ccc(Cl)cc45)cccc3C2=O)C(=O)N1 (stereo not drawn) [Example 120, 3-(4-(6-(6-chloro-3H-spiro[isobenzofuran-1,4′-piperidine]-1′-)hexyl)-1-oxoisoindoline-2-)piperidine-2,6-dione] | < 100 nM |
| O=C1CCC(N2Cc3c(CCCCCN4CCC5(CC4)C(=O)Nc4ccccc45)cccc3C2=O)C(=O)N1 (stereo not drawn) [Example 121, 3-(1-oxo-4-(5-(2-oxospiro[indoline-3,4′-piperidine]-1′-)pentyl)indoline-2-)piperidine-2,6-dione] | < 100 nM |
| O=C1CCC(N2Cc3c(CCCCCN4CCC5(CC4)OCc4ccccc45)cccc3C2=O)C(=O)N1 (stereo not drawn) [Example 123, 3-(4-(5-(3H-spiro[isobenzofuran-1,4′-piperidine]-1′-)pentyl)-1-oxoisoindoline-2-)piperidine-2,6-dione] | < 100 nM |
| O=C1CCC(N2Cc3c(OCCCCN4CCC5(CC4)OCc4ccc(Cl)cc45)cccc3C2=O)C(=O)N1 (stereo not drawn) [Example 124, 3-(4-(4-(6-chloro-3H-spiro[isobenzofuran-1,4′-piperidine]-1′-)butoxy)-1-oxoisoindoline-2-)piperidine-2,6-dione] | < 100 nM |
| O=C1CCC(N2Cc3c(CCCCCN4CCC5(CC4)OC(=O)Nc4ccccc45)cccc3C2=O)C(=O)N1 (stereo not drawn) [Example 125, 3-(1-oxo-4-(5-(2-oxo-1,2-dihydrospiro[benzo[d][1,3]oxazine-4,4′-piperidine]-1′-)pentyl)isoindoline-2-)piperidine-2,6-dione] | 100 to 1000 nM |
| O=C1CCC(N2Cc3c(OCCCCN4CCC5(CC4)OCc4ccccc45)cccc3C2=O)C(=O)N1 (stereo not drawn) [Example 126, 3-(4-(4-(2H-spiro[benzofuran-3,4′-piperidine]-1′-)butoxy)-1-oxoisoindoline-2-)piperidine-2,6-dione] | < 100 nM |
| O=C1CCC(N2Cc3c(CCCCCN4CCC5(CC4)OCc4ccc(Cl)cc45)cccc3C2=O)C(=O)N1 (stereo not drawn) [Example 127] | 100 to 1000 nM |
| O=C1CCC(N2Cc3c(OCCCCN4CCC5(CC4)OCc4ccc(F)cc45)cccc3C2=O)C(=O)N1 (stereo not drawn) [Example 128, 3-(4-(4-(6-fluoro-3H-spiro[isobenzofuran-1,4′-piperidine]-1′-)butoxy)-1-oxoisoindoline-2-)piperidine-2,6-dione] | < 100 nM |
